Test [1] relates to Ltrmdr1. Conditions: literature; cited from earlier work.
The subject of test [2] is MDA435/LCC6 MDR cells. In words: Doxorubicin accumulation. It counts as cell-based, human. Conditions: LCC6 MDR; apigenin dimers 10 μM; 20 μM doxorubicin, 2 h. How it is done: Doxorubicin accumulation. 2.5 ml (10^5 cells/ml) MDA435/LCC6 (both parent and MDR subtype) cells were seeded in each well of 6-well plates. At confluence, culture medium was removed. 2 ml of fresh DMEM with modulators was added and cells were incubated for 30 min at 37° C. Doxorubicin (final concentration of 20 μM) was then added and incubated for 2 h at 37° C. The cells were then harvested by trypsinization.
For P388 (both parent and MDR subtype) cells, 1 ml (10^5 cells) confluent cells were aliquot into Eppendorf tube and pre-incubated with flavone dimers for 30 min at 37° C. Doxorubicin (final concentration of 10 μM) was then added and incubated for 2 h at 37° C. at a final concentration of 10 μM. The cell pellets were washed 3 times with cold PBS by using an Eppendorf micro-centrifuge and lysed with 0.3N HCL in 50% ethanol, and sonicated for 30s. After centrifugation at 10000 rpm/min for 3 min, the supernatant was saved. The fluorescence of doxorubicin was measured using a spectrofluorometer (λexcite=470 nm, λemit=585 nm).
In order to understand whether the modulating activity for various anticancer drugs by different dimers is due to their different ability to modulate P-gp mediated drug efflux, their effects on the accumulation of doxorubicin in both MDA435/LCC6 sensitive and resistant cells were investigated. Doxorubicin was a fluorescent drug substrate of P-gp and was used in this experiment to monitor the P-gp mediated drug efflux. Accumulation of doxorubicin in these cells was determined in the presence or absence of apigenin dimers (10 μM) and monomer (20 μM). Verapamil was used as a positive control.

Test [3] relates to MDA435/LCC6 cells. As to the kind of experiment: Doxorubicin accumulation. It counts as cell-based, human. As to conditions: LCC6, basal P-gp; dimers 10 μM, monomer 20 μM.
Method: Doxorubicin accumulation. […] At confluence, culture medium was removed. 2 ml of fresh DMEM with modulators was added and cells were incubated for 30 min at 37° C. Doxorubicin (final concentration of 20 μM) was then added and incubated for 2 h at 37° C. The cells were then harvested by trypsinization.
The test system of test [4] is P388 cells. In words: Doxorubicin accumulation. It counts as cell-based, murine.
Test [5] has as its system pentamidine-resistant L. enriettii LePentR50 promastigotes. As to the kind of experiment: microbe, parasite or virus in culture. As to conditions: LePentR50; FIG. 18A.

Structures are written as SMILES.

For the compound `COc1ccc(-c2oc3c(CC=C(C)C)c(O)cc(O)c3c(=O)c2O)cc1` [8-dimethylallylkaempferide], the “modulation (inhibition of Ltrmdr1) compared with cyclosporine A or verapamil” value in test [1] is given as “better modulator than either cyclosporine A or verapamil”.
As to `COc1ccc(CCN(C)CCCC(C#N)(c2ccc(OC)c(OC)c2)C(C)C)cc1OC` (centres unmarked) [Verapamil, reference compound], in test [2], the “enhancement of doxorubicin accumulation, folds of control” value is 6.2 folds. Also, the “accumulation of doxorubicin in LCC6” value in test [3] was “unaffected”. The “doxorubicin accumulation in parent sensitive cells” value in test [4] is given as “almost unaffected”. The pentamidine sensitization result in test [5] is given as “less than half-fold sensitization”.

Source of the values: patent publication US8710097B2, “Flavonoid dimers and methods of making and using such” (The Hong Kong Polytechnic University, priority 2006, dated 2014).
